These results are taken from ChEMBL document CHEMBL5465560, “Selectivity Literature for EUbOPEN Chemogenomic Library” (2024).

For experiment [1], the target named is T1, Serine/threonine-protein kinase Nek9 (Homo sapiens) (UniProt Q8TD19).
T1 sequence (whole entry): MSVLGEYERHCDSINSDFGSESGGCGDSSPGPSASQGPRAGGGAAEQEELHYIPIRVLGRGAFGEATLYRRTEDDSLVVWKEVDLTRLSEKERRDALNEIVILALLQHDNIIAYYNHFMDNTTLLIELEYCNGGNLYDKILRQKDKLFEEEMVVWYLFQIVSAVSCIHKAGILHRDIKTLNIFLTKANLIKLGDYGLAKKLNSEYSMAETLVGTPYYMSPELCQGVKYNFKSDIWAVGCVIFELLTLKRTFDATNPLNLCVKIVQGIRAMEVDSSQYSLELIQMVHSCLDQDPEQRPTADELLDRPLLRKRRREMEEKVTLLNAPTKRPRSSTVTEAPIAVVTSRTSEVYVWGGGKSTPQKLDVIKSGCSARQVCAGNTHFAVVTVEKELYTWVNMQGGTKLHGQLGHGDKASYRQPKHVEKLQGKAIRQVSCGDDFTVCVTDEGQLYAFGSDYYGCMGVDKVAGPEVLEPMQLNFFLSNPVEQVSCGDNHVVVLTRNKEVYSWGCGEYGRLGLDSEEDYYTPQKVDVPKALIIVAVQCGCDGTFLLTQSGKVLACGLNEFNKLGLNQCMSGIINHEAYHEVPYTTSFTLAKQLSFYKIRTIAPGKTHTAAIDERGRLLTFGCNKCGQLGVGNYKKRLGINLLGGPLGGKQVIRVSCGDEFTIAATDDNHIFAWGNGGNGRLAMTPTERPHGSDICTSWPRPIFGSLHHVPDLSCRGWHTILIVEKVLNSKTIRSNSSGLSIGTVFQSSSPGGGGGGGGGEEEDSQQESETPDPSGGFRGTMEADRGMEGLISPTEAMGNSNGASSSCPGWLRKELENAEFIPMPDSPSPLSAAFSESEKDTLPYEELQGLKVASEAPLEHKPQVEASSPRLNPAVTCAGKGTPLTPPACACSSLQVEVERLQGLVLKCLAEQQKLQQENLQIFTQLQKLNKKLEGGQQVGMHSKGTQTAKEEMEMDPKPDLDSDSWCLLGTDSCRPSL
Briefly: Selectivity interaction (ActivX KiNativ screen (ex vivo kinase selectivity in human PBMCs)) EUB0001619a NEK9. The following applies: PBMC, at 1 µM. The format is cell-based.

Experiment [2] addresses T2, cGMP-dependent protein kinase 2 (Homo sapiens) (UniProt Q13237).
T2 sequence (whole entry): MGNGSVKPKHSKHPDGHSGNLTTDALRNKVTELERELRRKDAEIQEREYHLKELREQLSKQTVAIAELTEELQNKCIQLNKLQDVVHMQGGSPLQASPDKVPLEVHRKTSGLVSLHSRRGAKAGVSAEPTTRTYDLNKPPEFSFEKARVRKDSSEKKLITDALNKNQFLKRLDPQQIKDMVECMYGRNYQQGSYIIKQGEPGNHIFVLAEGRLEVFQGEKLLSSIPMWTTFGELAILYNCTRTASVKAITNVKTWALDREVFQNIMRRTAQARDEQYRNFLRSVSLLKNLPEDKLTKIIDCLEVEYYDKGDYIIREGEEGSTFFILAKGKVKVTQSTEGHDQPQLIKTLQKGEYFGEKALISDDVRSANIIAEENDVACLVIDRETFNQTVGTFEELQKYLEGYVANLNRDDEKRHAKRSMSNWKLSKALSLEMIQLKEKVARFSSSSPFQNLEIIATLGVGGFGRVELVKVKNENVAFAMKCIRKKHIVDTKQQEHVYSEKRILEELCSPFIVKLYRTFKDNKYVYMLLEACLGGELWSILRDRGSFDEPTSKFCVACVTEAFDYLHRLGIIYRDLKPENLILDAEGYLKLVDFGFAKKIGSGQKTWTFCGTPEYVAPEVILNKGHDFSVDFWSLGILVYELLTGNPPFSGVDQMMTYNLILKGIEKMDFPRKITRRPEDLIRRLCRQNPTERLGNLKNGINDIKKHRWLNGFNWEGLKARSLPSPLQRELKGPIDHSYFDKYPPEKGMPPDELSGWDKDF
Briefly: Selectivity interaction (KinomeScan (DiscoverX)) EUB0000695a PRKG2. As to conditions: at 100 nM.

Experiment [3] concerns the target Ephrin type-A receptor 5 (Homo sapiens) (UniProt P54756). Briefly: Selectivity interaction (KinomeScan (DiscoverX)) EUB0000666a EPHA5. The following applies: at 10 µM.
The target of experiment [4] is Insulin-like growth factor 1 receptor (Homo sapiens, UniProt P08069). In words: Selectivity interaction (SelectScreen profiling (Invitrogen)) EUB0000607a IGF1R. As to conditions: at 2 µM.
Sequence of Insulin-like growth factor 1 receptor (P08069 31-736 limits assumed): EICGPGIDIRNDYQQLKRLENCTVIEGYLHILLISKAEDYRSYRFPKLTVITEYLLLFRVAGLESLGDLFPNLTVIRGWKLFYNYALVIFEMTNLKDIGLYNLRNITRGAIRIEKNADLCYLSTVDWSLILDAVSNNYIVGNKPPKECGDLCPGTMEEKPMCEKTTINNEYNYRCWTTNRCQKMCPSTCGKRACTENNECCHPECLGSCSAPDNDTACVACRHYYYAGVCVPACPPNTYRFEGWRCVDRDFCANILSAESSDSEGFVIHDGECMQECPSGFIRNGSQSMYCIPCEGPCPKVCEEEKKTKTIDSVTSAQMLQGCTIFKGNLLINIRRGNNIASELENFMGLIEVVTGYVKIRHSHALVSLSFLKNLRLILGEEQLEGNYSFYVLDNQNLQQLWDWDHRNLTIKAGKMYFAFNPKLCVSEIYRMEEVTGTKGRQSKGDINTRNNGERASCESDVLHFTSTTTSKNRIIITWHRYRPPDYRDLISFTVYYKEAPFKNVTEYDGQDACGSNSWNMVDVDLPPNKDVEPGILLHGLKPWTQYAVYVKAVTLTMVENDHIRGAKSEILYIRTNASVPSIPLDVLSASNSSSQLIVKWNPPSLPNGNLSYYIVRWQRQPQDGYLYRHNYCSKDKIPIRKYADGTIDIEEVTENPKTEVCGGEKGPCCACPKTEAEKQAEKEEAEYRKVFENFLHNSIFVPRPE
Sequence of Insulin-like growth factor 1 receptor (P08069 741-1367 limits assumed): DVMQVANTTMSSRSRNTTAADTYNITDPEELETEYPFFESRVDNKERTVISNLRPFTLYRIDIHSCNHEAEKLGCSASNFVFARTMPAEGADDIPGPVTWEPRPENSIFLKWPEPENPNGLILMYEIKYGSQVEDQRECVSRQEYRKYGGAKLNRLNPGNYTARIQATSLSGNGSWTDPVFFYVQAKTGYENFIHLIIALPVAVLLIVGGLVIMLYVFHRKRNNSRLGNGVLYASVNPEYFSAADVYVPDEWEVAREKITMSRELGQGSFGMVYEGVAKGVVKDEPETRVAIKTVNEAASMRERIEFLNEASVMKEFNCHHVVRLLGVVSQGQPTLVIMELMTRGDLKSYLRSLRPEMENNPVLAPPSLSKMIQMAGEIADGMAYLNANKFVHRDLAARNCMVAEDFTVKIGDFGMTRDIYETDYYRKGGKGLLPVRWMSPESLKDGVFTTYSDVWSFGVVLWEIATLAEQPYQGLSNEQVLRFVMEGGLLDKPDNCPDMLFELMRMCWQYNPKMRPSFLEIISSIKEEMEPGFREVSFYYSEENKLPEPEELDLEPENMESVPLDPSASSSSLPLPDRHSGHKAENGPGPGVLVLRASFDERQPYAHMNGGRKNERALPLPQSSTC
The target of experiment [5] is Tyrosine-protein kinase Fgr (Homo sapiens) (UniProt P09769). Briefly: Selectivity interaction (Kinase panel (Invitrogen)) EUB0000639a FGR. The following applies: at 200 nM.
Sequence of Tyrosine-protein kinase Fgr (Homo sapiens) (P09769 2-529 limits assumed): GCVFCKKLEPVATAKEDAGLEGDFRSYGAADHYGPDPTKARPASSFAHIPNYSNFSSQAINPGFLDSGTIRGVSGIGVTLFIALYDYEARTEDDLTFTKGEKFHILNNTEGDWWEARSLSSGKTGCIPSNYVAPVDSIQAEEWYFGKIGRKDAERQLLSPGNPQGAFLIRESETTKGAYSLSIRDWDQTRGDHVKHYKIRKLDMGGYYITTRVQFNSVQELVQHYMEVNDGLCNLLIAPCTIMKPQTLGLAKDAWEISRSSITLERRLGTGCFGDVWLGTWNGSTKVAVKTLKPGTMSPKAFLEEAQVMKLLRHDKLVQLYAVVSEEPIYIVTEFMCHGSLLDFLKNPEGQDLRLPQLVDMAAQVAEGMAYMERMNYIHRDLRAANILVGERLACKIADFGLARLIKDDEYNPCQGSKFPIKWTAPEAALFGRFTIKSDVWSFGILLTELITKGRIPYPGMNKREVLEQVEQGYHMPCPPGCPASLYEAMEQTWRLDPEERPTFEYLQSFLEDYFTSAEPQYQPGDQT
The target of experiment [6] is Tyrosine-protein kinase receptor Tie-1 (Homo sapiens) (UniProt P35590). In words: Selectivity interaction (Ambit KINOMEscan and KiNATiv profiling in Jurkat cells) EUB0000090b TIE1. The format is cell-based. The following applies: at 1 µM.
Sequence of Tyrosine-protein kinase receptor Tie-1 (Homo sapiens) (P35590 whole entry): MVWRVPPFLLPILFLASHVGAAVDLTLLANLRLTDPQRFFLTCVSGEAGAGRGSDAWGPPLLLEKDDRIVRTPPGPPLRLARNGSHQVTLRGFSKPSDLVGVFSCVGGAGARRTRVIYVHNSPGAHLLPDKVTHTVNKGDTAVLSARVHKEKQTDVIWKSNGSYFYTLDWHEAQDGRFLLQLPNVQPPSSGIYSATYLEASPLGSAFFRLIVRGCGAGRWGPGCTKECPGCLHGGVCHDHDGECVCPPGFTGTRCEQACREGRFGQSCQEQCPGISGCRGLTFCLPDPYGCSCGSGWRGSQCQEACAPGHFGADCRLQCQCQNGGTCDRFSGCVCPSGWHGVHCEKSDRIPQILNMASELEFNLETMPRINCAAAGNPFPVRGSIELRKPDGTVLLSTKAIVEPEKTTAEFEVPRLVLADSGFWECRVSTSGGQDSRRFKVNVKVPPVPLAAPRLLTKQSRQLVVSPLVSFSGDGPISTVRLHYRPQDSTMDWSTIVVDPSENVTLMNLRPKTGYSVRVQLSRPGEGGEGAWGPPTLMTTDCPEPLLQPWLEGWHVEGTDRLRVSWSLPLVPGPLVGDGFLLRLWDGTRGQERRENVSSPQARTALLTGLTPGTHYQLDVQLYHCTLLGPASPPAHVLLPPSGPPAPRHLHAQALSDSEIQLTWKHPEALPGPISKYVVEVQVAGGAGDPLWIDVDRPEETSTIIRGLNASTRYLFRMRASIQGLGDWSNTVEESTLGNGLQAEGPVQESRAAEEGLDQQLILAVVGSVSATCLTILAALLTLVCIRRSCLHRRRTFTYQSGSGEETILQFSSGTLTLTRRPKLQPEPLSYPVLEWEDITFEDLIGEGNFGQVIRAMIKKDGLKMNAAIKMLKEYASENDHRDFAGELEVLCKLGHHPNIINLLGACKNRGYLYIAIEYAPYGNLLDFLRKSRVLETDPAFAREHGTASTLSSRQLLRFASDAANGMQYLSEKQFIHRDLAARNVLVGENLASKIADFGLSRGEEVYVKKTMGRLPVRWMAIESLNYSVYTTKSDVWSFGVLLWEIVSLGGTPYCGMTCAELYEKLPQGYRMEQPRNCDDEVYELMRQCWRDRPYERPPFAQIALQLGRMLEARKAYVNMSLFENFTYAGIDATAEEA
The target of experiment [7] is T3, Serine/threonine-protein kinase BRSK2 (Homo sapiens) (UniProt Q8IWQ3).
T3 sequence (whole entry): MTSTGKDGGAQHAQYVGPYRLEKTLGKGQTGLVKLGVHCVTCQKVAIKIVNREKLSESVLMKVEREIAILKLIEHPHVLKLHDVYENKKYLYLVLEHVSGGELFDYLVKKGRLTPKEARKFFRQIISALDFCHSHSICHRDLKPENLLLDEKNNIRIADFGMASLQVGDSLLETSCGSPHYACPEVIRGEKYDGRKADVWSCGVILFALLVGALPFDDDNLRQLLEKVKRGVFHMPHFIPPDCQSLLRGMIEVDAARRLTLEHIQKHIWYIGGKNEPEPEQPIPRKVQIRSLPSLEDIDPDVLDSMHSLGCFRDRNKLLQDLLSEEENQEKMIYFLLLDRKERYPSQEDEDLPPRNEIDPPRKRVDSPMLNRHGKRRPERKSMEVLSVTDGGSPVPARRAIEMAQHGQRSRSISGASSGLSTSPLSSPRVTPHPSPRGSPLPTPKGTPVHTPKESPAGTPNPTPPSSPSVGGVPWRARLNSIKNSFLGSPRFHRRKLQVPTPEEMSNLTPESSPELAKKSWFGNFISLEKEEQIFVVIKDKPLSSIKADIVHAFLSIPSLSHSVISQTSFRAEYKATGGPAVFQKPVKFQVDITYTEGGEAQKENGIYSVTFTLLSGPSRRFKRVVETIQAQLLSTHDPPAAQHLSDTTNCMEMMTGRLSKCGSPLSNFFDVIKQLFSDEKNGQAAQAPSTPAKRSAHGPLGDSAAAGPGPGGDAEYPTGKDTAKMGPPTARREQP
In words: Selectivity interaction (KinomeScan (DiscoverX)) EUB0001049a BRSK2. The following applies: at 1 µM.

Experiment [8] addresses Serine/threonine-protein kinase pim-2 (Homo sapiens, UniProt Q9P1W9). In words: Selectivity interaction (KinomeScan (DiscoverX)) EUB0000655a PIM2. As to conditions: at 10 µM.
For experiment [9], the target named is Casein kinase I isoform gamma-2 (Homo sapiens) (UniProt P78368). Briefly: Selectivity interaction (KinomeScan (DiscoverX)) EUB0000092b CSNK1G2. As to conditions: at 10 µM.
Sequence of Casein kinase I isoform gamma-2 (Homo sapiens) (P78368 whole entry, looked up, canonical isoform): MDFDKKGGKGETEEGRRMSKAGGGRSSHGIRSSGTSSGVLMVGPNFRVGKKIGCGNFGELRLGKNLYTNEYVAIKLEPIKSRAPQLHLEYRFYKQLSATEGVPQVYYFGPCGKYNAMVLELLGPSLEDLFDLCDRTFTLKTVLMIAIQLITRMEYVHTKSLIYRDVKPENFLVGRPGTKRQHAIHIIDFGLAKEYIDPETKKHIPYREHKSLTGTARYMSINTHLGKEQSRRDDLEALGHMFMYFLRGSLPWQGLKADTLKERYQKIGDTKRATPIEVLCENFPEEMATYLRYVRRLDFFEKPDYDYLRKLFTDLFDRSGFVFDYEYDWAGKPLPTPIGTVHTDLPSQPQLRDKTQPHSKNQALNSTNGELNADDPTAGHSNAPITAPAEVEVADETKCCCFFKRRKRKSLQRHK

Structures are written as SMILES.

Sequence of Ephrin type-A receptor 5 (Homo sapiens) (P54756 whole entry): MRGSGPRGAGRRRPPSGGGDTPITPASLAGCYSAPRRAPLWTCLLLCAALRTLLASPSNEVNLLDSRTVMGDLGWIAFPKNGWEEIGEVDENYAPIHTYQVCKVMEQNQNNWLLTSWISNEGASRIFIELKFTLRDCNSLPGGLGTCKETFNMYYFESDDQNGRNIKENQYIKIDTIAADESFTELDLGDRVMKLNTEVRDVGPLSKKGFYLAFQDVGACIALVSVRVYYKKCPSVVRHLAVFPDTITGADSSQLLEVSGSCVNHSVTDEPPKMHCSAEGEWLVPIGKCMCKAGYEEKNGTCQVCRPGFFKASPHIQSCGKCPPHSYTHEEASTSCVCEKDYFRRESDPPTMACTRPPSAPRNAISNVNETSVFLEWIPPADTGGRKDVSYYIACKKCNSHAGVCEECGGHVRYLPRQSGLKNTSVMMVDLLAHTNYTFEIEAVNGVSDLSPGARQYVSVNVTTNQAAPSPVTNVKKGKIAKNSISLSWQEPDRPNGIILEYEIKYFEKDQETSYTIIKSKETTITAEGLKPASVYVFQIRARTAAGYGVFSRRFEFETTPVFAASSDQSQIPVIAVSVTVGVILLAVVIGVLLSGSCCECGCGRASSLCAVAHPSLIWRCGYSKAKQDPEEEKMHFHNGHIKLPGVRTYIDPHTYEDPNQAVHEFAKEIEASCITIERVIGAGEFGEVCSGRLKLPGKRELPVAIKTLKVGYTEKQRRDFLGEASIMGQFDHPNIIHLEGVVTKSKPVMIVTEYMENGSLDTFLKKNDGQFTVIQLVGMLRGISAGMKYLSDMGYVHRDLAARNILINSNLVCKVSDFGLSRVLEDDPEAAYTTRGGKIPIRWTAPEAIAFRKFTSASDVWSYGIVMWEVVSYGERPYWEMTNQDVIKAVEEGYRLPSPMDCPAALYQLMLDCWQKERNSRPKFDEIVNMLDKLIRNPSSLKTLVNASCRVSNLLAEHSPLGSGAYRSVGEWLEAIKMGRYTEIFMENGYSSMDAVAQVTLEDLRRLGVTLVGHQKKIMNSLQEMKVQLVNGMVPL
Sequence of Serine/threonine-protein kinase pim-2 (Q9P1W9 whole entry, looked up, canonical isoform): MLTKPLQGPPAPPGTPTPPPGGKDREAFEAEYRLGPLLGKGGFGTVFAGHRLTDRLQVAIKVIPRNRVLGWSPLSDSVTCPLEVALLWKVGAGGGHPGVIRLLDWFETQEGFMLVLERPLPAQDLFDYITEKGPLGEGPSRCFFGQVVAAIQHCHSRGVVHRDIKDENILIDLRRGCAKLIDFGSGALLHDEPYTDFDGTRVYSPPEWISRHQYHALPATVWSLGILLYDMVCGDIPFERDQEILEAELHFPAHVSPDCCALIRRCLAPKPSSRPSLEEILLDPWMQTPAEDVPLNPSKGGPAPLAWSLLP

`N#Cc1cccc(-c2c[nH]c3ncnc(N4CCOCC4)c23)c1` yielded a % of inhibition in [1] of 1%. As to `Cc1cc(F)c(C(=O)Nc2cccc(-c3nncn3C(C)C)n2)cc1-n1cnc(C2CC2)c1`, in experiment [2], the % of control was 88%. `O=C(NOC[C@H](O)CO)c1ccc(F)c(F)c1Nc1ccc(I)cc1F` yielded a % of control in experiment [3] of 96%. Turning to `CNC(=O)Nc1ccc(-c2nc(N3CC4CCC(C3)O4)c3cnn(C4CCC5(CC4)OCCO5)c3n2)cc1`, in experiment [4], the % of inhibition came out at 1%. With `CC[C@@H]1[C@H](F)C(=O)N[C@@H]1COc1nccc2cc(C(N)=O)c(OC)cc12` [ZIMLOVISERTIB], the % of inhibition in experiment [5] was 8.5%.

In turn, `CN(C)C/C=C/C(=O)Nc1ccc(C(=O)N2CCCC(Nc3ncc(Cl)c(-c4c[nH]c5ccccc45)n3)C2)cc1` (centres undefined) returned a % of control in [6] of 96%. The molecule `COc1cc(Nc2nc(C)cc(-c3cnn4nc(OC)ccc34)n2)cc(C(F)(F)F)c1` gave a % of control in experiment [7] of 94%. The molecule `CN(C)CCOc1ccc(-c2nc(-c3ccncc3)c(-c3ccc4c(c3)CC/C4=N\O)[nH]2)cc1` showed a % of control in experiment [8] of 78%.

In [9], `CCC(=O)N1CCN(c2ccc(-n3c(=O)ccc4cnc5ccc(-c6cnc7ccccc7c6)cc5c43)cc2C(F)(F)F)CC1` showed a % of control of 100%.
